According to patent publication US8124793B2, “Derivatives of ethylene methanedisulfonate as cancer chemotherapeutic agents” (priority 2007, dated 2012):

Experiments:
Type in all cases: cell-based
CCRF-CEM = assay: NCI screen, growth of human tumor cells: Leukemia CCRF-CEM; conditions: CCRF-CEM
In short: (§1)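 At least 60 data points describe each compound tested by NCI. Cancer type, molar concentration in the screen and percent growth make up the recorded data.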

MOLT-4 = assay: NCI screen, growth of human tumor cells: Leukemia MOLT-4; conditions: MOLT-4 (Leukemia), 10^−4 molar
In short: as §1

RPMI-8226 = assay: NCI screen, growth of human tumor cells: Leukemia RPMI-8226; conditions: RPMI-8226 (Leukemia), 10^−4 molar
In short: as §1

SR = assay: NCI screen, growth of human tumor cells: Leukemia SR; conditions: SR
In short: as §1

AS49/ATCC = assay: NCI screen, growth of human tumor cells: Non-Small Cell Lung AS49/ATCC; conditions: A549/ATCC, 10^−4 molar
In short: as §1

EKVX = assay: NCI screen, growth of human tumor cells: Non-Small Cell Lung EKVX; conditions: EKVX, 10^−4 molar
In short: as §1

HOP-62 = assay: NCI screen, growth of human tumor cells: Non-Small Cell Lung HOP-62; conditions: HOP-62, 10^−4 molar
In short: as §1

HOP-92 = assay: NCI screen, growth of human tumor cells: Non-Small Cell Lung HOP-92; conditions: HOP-92 (Non-Small Cell Lung), 10^−4 molar
In short: as §1

NCI-H522 = assay: NCI screen, growth of human tumor cells: Non-Small Cell Lung NCI-H522
In short: as §1

NCI-H460 = assay: NCI screen, growth of human tumor cells: Non-Small Cell Lung NCI-H460; conditions: NCI-H460 (Non-Small Cell Lung), 10^−4 molar
In short: as §1

NCI-H322M = assay: NCI screen, growth of human tumor cells: Non-Small Cell Lung NCI-H322M; conditions: 10^−4 molar
Procedure: (§2) In the NCI screening process, each compound was tested and described by a minimum of 60 data points. The test data include, but are not limited to the type of cancer, the molar concentration used in the screen, and the percent growth of the cancer. In some cases, NMR and elemental analysis were used for structural assignment.

NCI-H23 = assay: NCI screen, growth of human tumor cells: Non-Small Cell Lung NCI-H23; conditions: NCI-H23, 10^−4 molar
In short: as §1

HCC-2998 = assay: NCI screen, growth of human tumor cells: HCC-2998 (listed under Non-Small Cell Lung); conditions: HCC-2998, 10^−4 molar
Procedure: as §2

COLO205 = assay: NCI screen, growth of human tumor cells: Colon Cancer COLO205
In short: as §1

HCT-116 = assay: NCI screen, growth of human tumor cells: Colon Cancer HCT-116; conditions: HCT-116, 10^−4 molar
In short: as §1

HCT-15 = assay: NCI screen, growth of human tumor cells: Colon Cancer HCT-15; conditions: HCT-15 (Colon Cancer), 10^−4 molar
In short: as §1

HT29 = assay: NCI screen, growth of human tumor cells: Colon Cancer HT29; conditions: HT-29, 10^−4 molar
In short: as §1

KM12 = assay: NCI screen, growth of human tumor cells: Colon Cancer KM12; conditions: KM12, 10^−4 molar
In short: as §1

SF-268 = assay: NCI screen, growth of human tumor cells: CNS Cancer SF-268
In short: as §1

SF-295 = assay: NCI screen, growth of human tumor cells: CNS Cancer SF-295
In short: as §1

SNB-19 = assay: NCI screen, growth of human tumor cells: CNS Cancer SNB-19; conditions: SNB-19, 10^−4 molar
Procedure: as §2

SNB-75 = assay: NCI screen, growth of human tumor cells: CNS Cancer SNB-75
In short: as §1

U-251 = assay: NCI screen, growth of human tumor cells: CNS Cancer U-251; conditions: U251, 10^−4 molar
In short: as §1

M14 = assay: NCI screen, growth of human tumor cells: Melanoma M14; conditions: M14, 10^−4 molar
In short: as §1

MALME-3M = assay: NCI screen, growth of human tumor cells: Melanoma MALME-3M; conditions: MALME-3M
In short: as §1

SK-MEL-2 = assay: NCI screen, growth of human tumor cells: Melanoma SK-MEL-2; conditions: SK-MEL-2, 10^−4 molar
In short: as §1

SK-MEL-28 = assay: NCI screen, growth of human tumor cells: Melanoma SK-MEL-28; conditions: SK-MEL-28 (Melanoma), 10^−4 molar
In short: as §1

SK-MEL-5 = assay: NCI screen, growth of human tumor cells: Melanoma SK-MEL-5; conditions: SK-MEL-5, 10^−4 molar
In short: as §1

UACC-257 = assay: NCI screen, growth of human tumor cells: Melanoma UACC-257; conditions: UACC-257 (Melanoma), 10^−4 molar
In short: as §1

UACC-62 = assay: NCI screen, growth of human tumor cells: Melanoma UACC-62; conditions: UACC-62, 10^−4 molar
In short: as §1

IGROVI = assay: NCI screen, growth of human tumor cells: Ovarian Cancer IGROVI; conditions: IGROVI
In short: as §1

OVCAR-3 = assay: NCI screen, growth of human tumor cells: Ovarian Cancer OVCAR-3; conditions: OVCAR-3, 10^−4 molar
In short: as §1

OVCAR-4 = assay: NCI screen, growth of human tumor cells: Ovarian Cancer OVCAR-4; conditions: OVCAR-4 (Ovarian Cancer), 10^−4 molar
In short: as §1

OVCAR-5 = assay: NCI screen, growth of human tumor cells: Ovarian Cancer OVCAR-5; conditions: OVCAR-5, 10^−4 molar
In short: as §1

TK-10 = assay: NCI screen, growth of human tumor cells: Renal Cancer TK-10; conditions: TK-10 (Renal Cancer), 10^−4 molar
Procedure: as §2

SN12C = assay: NCI screen, growth of human tumor cells: Renal Cancer SN12C; conditions: SN12C (Renal Cancer), 10^−4 molar
In short: as §1

CAKI-1 = assay: NCI screen, growth of human tumor cells: Renal Cancer CAKI-1; conditions: CAKI-1, 10^−4 molar
In short: as §1

UO-31 = assay: NCI screen, growth of human tumor cells: Renal Cancer UO-31; conditions: UO-31 (Renal Cancer), 10^−4 molar
In short: as §1

PC-3 = assay: NCI screen, growth of human tumor cells: Prostate Cancer PC-3; conditions: PC-3, 10^−4 molar
Procedure: as §2

DU-145 = assay: NCI screen, growth of human tumor cells: Prostate Cancer DU-145; conditions: DV-145, 10^−4 molar
In short: as §1

MCF7/ADR-RES = assay: NCI screen, growth of human tumor cells: Breast Cancer MCF7/ADR-RES; conditions: MCF7/ADR-RES, 10^−4 molar
In short: as §1

BT-549 = assay: NCI screen, growth of human tumor cells: Breast Cancer BT-549; conditions: BT-549 (Breast Cancer), 10^−4 molar
In short: as §1

HS 578T = assay: NCI screen, growth of human tumor cells: Breast Cancer HS 578T; conditions: H5-578T
In short: as §1

MDA-MB-231/ATCC = assay: NCI screen, growth of human tumor cells: Breast Cancer MDA-MB-231/ATCC; conditions: MDA-MB-231/ATCC (Breast Cancer), 10^−4 molar
Procedure: as §2

human cancer cells = assay: NCI screen summary over the cancers tested (negative growth of human cancer cells); conditions: 10^−4 M conc.
Procedure: as §2
The derivatives in the tables are grouped using the same category as in the tables 1-6.

“propane-1-[hydroxyhydrogensulfate]-3-(2-methylnaphthyl)-3,3-(ethylenedisulfonate) [NSC 693879]” was tested, and the “% Growth” value (CCRF-CEM; 10^−4 molar) was −33%, the “% Growth” value (CCRF-CEM; 10^−5 molar) was 52% and the “percent of growth of human tumor cells” value (MOLT-4) was −16%. The “percent of growth of human tumor cells” value (RPMI-8226) was −28%, the “% Growth” value (SR; 10^−4 molar) was −19% and the “% Growth” value (SR; 10^−5 molar) was 13%. For the same substance, the “% Growth” value (AS49/ATCC) was −62%, the “% Growth” value (EKVX) was −90% and the “% Growth” value (HOP-62) was −65%. The “percent of growth of human tumor cells” value (HOP-92) was −35%, the “% Growth” value (NCI-H522; NCI-H522, 10^−4 molar) was −100% and the “% Growth” value (NCI-H522; NCI-H522, 10^−5 molar) was 35%. The “% Growth” value (NCI-H522; NCI-H522, 10^−6 molar) was 63%, the “percent of growth of human tumor cells” value (NCI-H460) was −58% and the “percent of growth of human tumor cells” value (NCI-H322M; NCI-H322M (Non-Small Cell Lung)) was −71%. For the same substance, the “% Growth” value (NCI-H322M; NCI-H322M) was −71%, the “% Growth” value (NCI-H23) was −65% and the “% Growth” value (HCC-2998) was −78%. The “% Growth” value (COLO205; COLO205, 10^−4 molar) was −73%, the “% Growth” value (COLO205; COLO205, 10^−5 molar) was 57% and the “% Growth” value (HCT-116) was −79%. For the same substance, the “percent of growth of human tumor cells” value (HCT-15) was −39%, the “% Growth” value (HT29) was −86% and the “% Growth” value (KM12) was −92%. For the same substance, the “% Growth” value (SF-268; SF-268, 10^−4 molar) was −56%, the “% Growth” value (SF-268; SF-268, 10^−5 molar) was 59% and the “% Growth” value (SF-295; SF-295, 10^−4 molar) was −82%. The “% Growth” value (SF-295; SF-295, 10^−5 molar) was 58%, the “% Growth” value (SNB-19) was −72% and the “% Growth” value (SNB-75; SNB-75, 10^−4 molar) was −62%. The “% Growth” value (SNB-75; SNB-75, 10^−5 molar) was 55%, the “% Growth” value (U-251) was −100% and the “% Growth” value (M14) was −100%. For the same substance, the “% Growth” value (MALME-3M; 10^−4 molar) was −100%, the “% Growth” value (MALME-3M; 10^−5 molar) was 44% and the “% Growth” value (MALME-3M; 10^−6 molar) was 62%. For the same substance, the “% Growth” value (SK-MEL-2) was −99%, the “percent of growth of human tumor cells” value (SK-MEL-28) was −5% and the “% Growth” value (SK-MEL-5) was −100%. The “percent of growth of human tumor cells” value (UACC-257) was −32%, the “% Growth” value (UACC-62) was −66% and the “% Growth” value (IGROVI; 10^−4 molar) was −89%. For the same substance, the “% Growth” value (IGROVI; 10^−5 molar) was 50%, the “% Growth” value (IGROVI; 10^−6 molar) was 60% and the “% Growth” value (IGROVI; 10^−7 molar) was 52%. For the same substance, the “% Growth” value (OVCAR-3) was −100%, the “percent of growth of human tumor cells” value (OVCAR-4) was −40% and the “% Growth” value (OVCAR-5) was −100%. For the same substance, the “percent of growth of human tumor cells” value (TK-10) was −3%, the “percent of growth of human tumor cells” value (SN12C) was −57% and the “% Growth” value (CAKI-1) was −87%. For the same substance, the “percent of growth of human tumor cells” value (UO-31) was −48%, the “% Growth” value (PC-3) was −100% and the “% Growth” value (DU-145) was −100%. For the same substance, the “% Growth” value (MCF7/ADR-RES) was −54%, the “percent of growth of human tumor cells” value (BT-549) was −34% and the “% Growth” value (HS 578T; 10^−4 molar) was −49%. The “% Growth” value (HS 578T; 10^−5 molar) was 55%, the “percent of growth of human tumor cells” value (MDA-MB-231/ATCC) was −54% and the “percentage of cancers that had −100% growth” value (human cancer cells) was 20%. The “Percentage of cancers showing negative growth cancers tested” value (human cancer cells; cancers with negative growth / cancers tested) was 100%.
